According to patent US20220117941A1, “CARBAMATE COMPOUND AND USE OF FORMULATION COMPRISING SAME IN PREVENTING, ALLEVIATING, OR TREATING ACUTE STRESS DISORDER OR POST-TRAUMATIC STRESS DISORDER” (SK BIOPHARMACEUTICALS CO., LTD., priority 2018, published 2022):
Counter-ions that a name gives are not always drawn.

Experiments:
blood corticoid = assay: Measurement of corticoid in blood of SPS-induced post-traumatic stress disorder rats (ELISA); type: in vivo, rats (Sprague-Dawley); settings: SPS-induced PTSD rats; 30 mg/kg orally for 15 days; vs vehicle-treated PTSD-induced rats; FIG. 4
Protocol: Adult male rats (Sprague-Dawley, 200 to 230 g) were used. The experimental animals were maintained at a light-and-darkness cycle of 12 hours (illuminated from 7 pm to 7 am), a temperature of 22 to 25° C., a relative humidity of 40 to 60%, and free access to water and food. The animals were randomly divided into three groups as follows: • Eight (8) rats as a control group, orally administered with saline as a vehicle at a dose volume of 3 ml/kg (Group 1) • Seven (7) rats in which post-traumatic stress disorder was induced, and saline as a vehicle was then orally administered at a dose volume of 3 ml/kg (Group 2) • Seven (7) rats in which post-traumatic stress disorder was induced, and Test Compound was then orally administered at a dose of 30 mg/kg (3 ml/kg) (Group 3) […]
(§1) Post-traumatic stress disorder was induced in Group 2 and Group 3 as described above. […] All experimental animals were measured daily for changes in mortality and body weight to determine whether post-traumatic stress disorder was well induced. […]
Rats were sacrificed rapidly by decapitation on the day after the forced swimming test, and blood was quickly collected via the abdominal aorta. […] The corticoid concentration was measured by enzyme-linked immunoassay (ELISA) using a Novus Biologicals Corticosterone kit. The results were measured by means of an ELISA reader (MultiRead 400) to calculate the concentration of corticoid. […]

[1] = tested on: rats in which post-traumatic stress disorder was induced by single prolonged stress (SPS); assay: Forced swimming test in rats with post-traumatic stress disorder induced by single prolonged stress (SPS); type: in vivo, rats (Sprague-Dawley); settings: SPS-induced PTSD rats; 30 mg/kg orally for 15 days; FIGS. 1 to 3
Protocol: Adult male rats (Sprague-Dawley, 200 to 230 g) were used. The experimental animals were maintained at a light-and-darkness cycle of 12 hours (illuminated from 7 pm to 7 am), a temperature of 22 to 25° C., a relative humidity of 40 to 60%, and free access to water and food. […]
as §1
To carry out a forced swimming test in the rats of Groups 1 to 3, water of 25° C. was filled to a height of 30 cm in a transparent cylinder (20 cm in diameter×50 cm in height). […] After 24 hours, rats were inserted into the cylinder for 5 minutes and the escape behavior of rats was recorded and measured using a video camera. […] Climbing behavior measured the time to climb upward, immobility behavior measured the time to not escape, and swimming behavior measured the time to move horizontally in the cylinder. […]

mice (CD-1) = assay: Forced swimming test in mice with combination of Test Compound and selective serotonergic reuptake inhibitor; type: in vivo; settings: CD-1 mice, 30 min after injection, FIG. 5
Protocol: Adult mice (CD-1) were used. The experimental animals were maintained at a light-and-darkness cycle of 12 hours (illuminated from 7 pm to 7 am), a temperature of 22 to 25° C., a relative humidity of 40 to 60%, and free access to water and food. The animals were randomly divided into four groups as follows: • Eight (8) mice as a control group, administered with intraperitoneal injection of saline as a vehicle at a dose volume of 10 ml/kg (Group 1) • Eight (8) mice as an experimental group, administered with intraperitoneal injection of Test Compound at a dose of 5 mg/kg (10 ml/kg) (Group 2) • Eight (8) mice as an experimental group, administered with intraperitoneal injection of fluoxetine hydrochloride at a dose of 10 mg/kg (10 ml/kg) (Group 3) • Eight (8) mice as an experimental group, administered with intraperitoneal injection of Test Compound at a dose of 5 mg/kg (10 ml/kg) and fluoxetine hydrochloride at a dose of 10 mg/kg (10 ml/kg) (Group 4)
To perform a forced swimming test in the mice of Groups 1 to 4, water of 25° C. was filled to a height of 20 cm in a transparent cylinder. […] The results are represented in FIG. 5.
Statistical analysis was carried out by using one-way ANOVA in Prism 7.04.

Compound	blood corticoid concentration (blood corticoid)	efficacy on symptoms associated with post-traumatic stress disorder (climbing, immobility and swimming behaviors in forced swimming test) [1]	immobility time in forced swimming test (Test Compound alone) (mice (CD-1); 5 mg/kg intraperitoneal)	immobility time in forced swimming test (fluoxetine alone) (mice (CD-1); fluoxetine hydrochloride 10 mg/kg intraperitoneal)
NC(=O)O[C@@H](Cn1ncnn1)c1ccccc1Cl [Test Compound]	statistically significant reduction	showing efficacy on alleviating symptoms associated with post-traumatic stress disorder	ineffective dose	
CNCCC(Oc1ccc(C(F)(F)F)cc1)c1ccccc1 (stereo not shown) [fluoxetine, fluoxetine hydrochloride, reference compound]				ineffective dose
